Data taken from the NIST ThermoML archive (doi:10.1021/je900027h).
± gives the expanded uncertainty stated by the source.

Settings: Crystal; DTA

Normal melting temperature: 104.92 ± 0.5 °C
SMILES: c1ccc2c(c1)ccc1ccccc12 [phenanthrene]
